Source: patent US11617723B2, “Composition for hepatic arterial chemoembolization using human serum albumin nanoparticles carrying anticancer agent, and method for producing same” (SOGANG UNIVERSITY RESEARCH FOUNDATION, priority 2016, dated 2023)

Test: In vitro drug release behavior (dialysis membrane in phosphate buffer saline, 37° C.)
Type: physicochemical
Details: 2000 Da dialysis membrane, PBS, 5 mg Adriamycin, FIG. 6
Procedure: In addition, the human serum albumin nanoparticles and lipiodol, which is an embolic material, are mixed in various ratios using the same method as that used in hepatic arterial chemoembolization to be changed into an emulsion form, and the released Adriamycin is quantitatively analyzed to measure drug release behaviors.
To analyze Adriamycin released from the Adriamycin-bound human serum albumin nanoparticles, 1 mL (Adriamycin content: 5 mg) of each of the prepared samples is injected into a 2000 Da dialysis membrane and completely sealed. The resulting structure is added to a tube containing 10 mL of phosphate buffer saline and shaken at 37° C., and the dialysis membrane is transferred to a tube containing 10 mL of phosphate buffer saline at a predetermined time point to obtain each sample every time point. Groups of prepared samples are as follows:
Group 1.—free Adriamycin in phosphate buffer saline (free DOX (PBS)) or contrast media (free DOX(Pamiray)) • free Adriamycin & lipiodol with volume ratio of 1:4 (free DOX (1:4)) • human serum albumin nanoparticles carrying Adriamycin in phosphate buffered saline (DOX-HSA-NPs (PBS)) or a contrast medium (DOX-HSA-NPs (Pamiray)) • human serum albumin nanoparticles carrying Adriamycin & lipiodol in a volume ratio of 1:4 (DOX-HSA-NPs (1:4)) […]

## COc1cccc2c1C(=O)c1c(O)c3c(c(O)c1C2=O)C[C@@](O)(C(=O)CO)C[C@@H]3O[C@H]1C[C@H](N)[C@H](O)[C@H](C)O1 [free DOX, Adriamycin]
  time of most release of the drug: ≤ 3 h
